The numbers were not newly measured in patent US20220257562A1, “METHOD FOR IMPROVING ENDOMETRIOSIS AND METHOD FOR PRODUCING A MATERIAL USED THEREFOR” (NICHIMO CO., LTD., priority 2017, published 2022), which cites them from elsewhere.

In one series the test system is MCF-7. Particulars: for effect on tamoxifen: MCF-7 / mammary tumors, Non-patent Literature 15, 17; for cell proliferation of estrogen-dependent breast cancer cells (MCF-7): Non-patent Literature 14, 16.
The next series concerns the target ERβ (Homo sapiens, UniProt Q92731). The conditions noted are these: Non-Patent Literature 23.

Molecules are shown by their SMILES.

Sequence of ERβ (Q92731 whole entry, species assumed): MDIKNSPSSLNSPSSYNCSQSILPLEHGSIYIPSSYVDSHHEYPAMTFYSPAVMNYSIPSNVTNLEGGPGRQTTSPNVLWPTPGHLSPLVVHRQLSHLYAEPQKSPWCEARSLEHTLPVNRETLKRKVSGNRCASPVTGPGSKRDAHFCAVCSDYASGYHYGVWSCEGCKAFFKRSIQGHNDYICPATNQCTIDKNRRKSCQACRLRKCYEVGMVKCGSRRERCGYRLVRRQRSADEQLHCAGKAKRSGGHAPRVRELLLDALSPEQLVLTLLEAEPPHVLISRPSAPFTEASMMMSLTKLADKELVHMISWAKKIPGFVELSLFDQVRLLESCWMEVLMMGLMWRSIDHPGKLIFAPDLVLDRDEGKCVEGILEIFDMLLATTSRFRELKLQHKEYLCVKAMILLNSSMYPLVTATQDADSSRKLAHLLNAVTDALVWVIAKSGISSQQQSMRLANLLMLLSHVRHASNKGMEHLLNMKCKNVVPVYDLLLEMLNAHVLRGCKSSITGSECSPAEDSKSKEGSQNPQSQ

`O=c1c(-c2ccc(O)cc2)coc2cc(O)cc(O)c12` [Genistein, genistein]: in the series with MCF-7, the effect on tamoxifen entry was “attenuates the inhibitory effect of tamoxifen” and the “cell proliferation of estrogen-dependent breast cancer cells (MCF-7)” value is “promotes cell proliferation”.

On to `O=c1c(-c2ccc(O)cc2)coc2cc(O)ccc12` [daidzein], for which, in the series with MCF-7, the effect on tamoxifen entry was “improved the therapeutic effect of tamoxifen” and the “cell proliferation of estrogen-dependent breast cancer cells (MCF-7)” value was “suppressed the proliferation”. In addition, the “binding to ERβ” value on ERβ was “binds weakly”.
